Converted amounts (≈) assume the structure as drawn.
What was measured:
[1] = test system: C. albicans E81022 strain; test: Anti-Candida activity (MIC measurement); assay type: cell-based; details: E81022STRAIN, MIC by visual inspection, C. albicans E81022, 48 hours at 30 to 35° C.
Method: (§1) For the C. albicans E81022 strain, a fungal suspension from a standing culture for 48 hours at 30° C. in a Sabouraud dextrose liquid culture medium (SDB) was diluted 10,000-fold with a 1.3-fold concentrated SDB to adjust to a fungal suspension of 1 to 2×10^4 cells/ml. For the A. fumigatus Tsukuba strain, −80° C. stored strain was diluted 1,000-fold with a 1.3-fold concentrated SDB to adjust to a fungal suspension of 2 to 3×10^3 cells/ml.
(§2) Using a U-bottomed 96 well plate, 8 samples/plate (A to H) of sample dilution solutions were prepared. On the 3rd row of each plate was dispensed 240 μl of sterilized and distilled water, and on the 2nd and 4th to 12th rows were dispensed 125 μl of 4% dimethylsulfoxide solution. Weighed sample was dissolved in dimethylsulfoxide to prepare a 2.5 to 20 mg/ml solution, 10 μl of this solution was then added to the 3rd row of the prepared plate, and 10 steps of two-fold step dilutions (125 μl of solution+125 μl of 4% dimethylsulfoxide) were performed on the plate.
(§3) The fungal suspension preprared in (1) was used in the amount of 75 μl/well to inoculate a V-bottomed or flat-bottomed 96 well plate containing 25 μl/well of test compound dilution solution prepared in (2), and a standing culture was carried out aerobically for 48 hours at 30 to 35° C.

[2] = test system: A. fumigatus Tsukuba strain; test: Anti-Aspergillus activity (MIC measurement); assay type: cell-based; details: MIC by visual inspection, 48 hours at 30 to 35° C.
Method: as §1, §2, §3

Row | MIC [1] [µg/mL] | MIC [2] [µg/mL] | Structure (SMILES)
1 | 6.25 (≈ 17.6 µM) |  | O=C(NCc1cccc(Oc2ccccc2)c1)c1ccc2cnccc2c1 [Example G-1, Isoquinoline-6-carboxylic acid 3-phenoxybenzylamide]
2 | 1.56 (≈ 4.54 µM) | 1.56 (≈ 4.54 µM) | Nc1ccc(C(=O)NCc2ccc(Oc3ccc(F)cc3)s2)cn1 [Example A-139, 6-Amino-N-(5-(4fluoro-phenoxy)-thiophen-2-ylmethyl)-nicotinamide]
3 | 3.13 (≈ 8.12 µM) | 6.25 (≈ 16.2 µM) | Nc1nc(OCCO)ccc1C(=O)NCc1ccc(Oc2ccccc2)s1 [Example A-112, 2-Amino-6-(2-hydroxyethoxy)-N-(5-phenoxy-thiophen-2-ylmethyl)-nicotinamide]
4 | 0.39 (≈ 1.06 µM) | 1.56 (≈ 4.25 µM) | CC(=O)c1ccc(C(=O)NCc2ccc(Oc3ccccc3)s2)c(N)n1 [Example A-98, 6-Acetyl-2-amino-N-(5-phenoxy-thiophen-2-ylmethyl)-nicotinamide]
5 | 3.13 (≈ 7.86 µM) | 6.25 (≈ 15.7 µM) | Nc1nc(NCC(=O)O)ccc1C(=O)NCc1ccc(Oc2ccccc2)s1 [Example A-99, (6-Amino-5-((5-phenoxy-thiophen-2-ylmethyl)-carbamoyl)-pyridin-2-ylamino)-acetic acid]
6 | 0.78 (≈ 2.19 µM) | 1.56 (≈ 4.39 µM) | O=C(NCc1cccc(Oc2ccccc2)c1)c1ccc2nccnc2c1 [Example I-1, Quinoxaline-6-carboxylic acid 3-phenoxybenzylamide]
7 | 1.56 (≈ 4.68 µM) | 1.56 (≈ 4.68 µM) | Nc1ccc(C(=O)NCc2ccc(OCc3ccccc3)cc2)cn1 [Example A-39, 6-Amino-N-(4-benzyloxybenzyl)-nicotinamide]
8 | 0.2 (≈ 0.586 µM) | 6.25 (≈ 18.3 µM) | O=C(NCc1ccn(Cc2ccccc2)c1)c1ccc2ncccc2c1 [Example E-57, Quinoline-6-carboxylic acid (1-benzyl-1H-pyrrol-3-ylmethyl)-amide]
9 | 0.2 (≈ 0.528 µM) | 0.78 (≈ 2.06 µM) | Cc1ccc(Cc2ccc(CNC(=O)c3ccc4ncccc4c3)s2)s1 [Example E-73, Quinoline-6-carboxylic acid (5-(5-methyl-thiophen-2-ylmethyl)-thiophen-2-ylmethyl)-amide]
10 | 3.13 (≈ 9.3 µM) | 6.25 (≈ 18.6 µM) | Nc1ncccc1C(=O)NCc1ccc(CCNc2ccccc2)o1 [Example A-8, 2-Amino-N-(5-(2-phenylamino-ethyl)-furan-2-ylmethyl)-nicotinamide]
11 | 0.2 (≈ 0.476 µM) | 1.56 (≈ 3.71 µM) | Nc1nc(NCc2ccco2)ccc1C(=O)NCc1ccc(Oc2ccccc2)s1 [Example A-82, 2-Amino-6-(furfurylamino)-N-(5-phenoxy-thiophen-2-ylmethyl)-nicotinamide]
12 | 0.1 (≈ 0.264 µM) | 1.56 (≈ 4.12 µM) | O=C(NCc1cc(Oc2cccc(F)c2)cs1)c1ccc2ncccc2c1 [Example E-69, Quinoline-6-carboxylic acid (4-(3-fluoro-phenoxy)-thiophen-2-ylmethyl)-amide]
13 | 0.78 (≈ 2.3 µM) | 1.56 (≈ 4.61 µM) | O=C(NCc1cccc(-c2ccccc2)c1)c1ccc2ncccc2c1 [Example E-13, Quinoline-6-carboxylic acid (biphenyl-3-ylmethyl)-amide]
14 | 1.56 (≈ 4.58 µM) | 0.78 (≈ 2.29 µM) | c1ccc(COc2ccc(CNc3ccc4ncccc4c3)cc2)cc1 [Example W-2, (4-Benzyloxy-benzyl)-quinolin-6-yl-amine]
15 | 0.2 (≈ 0.651 µM) | 0.78 (≈ 2.54 µM) | Nc1ncccc1C(=O)NCc1ccc(Cc2ccccc2)o1 [Example A-5, 2-Amino-N-(5-benzyl-furan-2-ylmethyl)-nicotinamide]
16 | 0.78 (≈ 2.18 µM) | 6.25 (≈ 17.5 µM) | Nc1nc(NCc2ccc(OCc3ccccc3)cc2)c2cccnc2n1 [Example Y-1, N*4*-(4-Benzyloxy-benzyl)-pyrido[2,3-d]pyrimidine-2,4-diamine]
17 | 0.1 (≈ 0.274 µM) |  | Nc1nc2c(cc1C(=O)NCc1ccc(Oc3ccccc3)s1)CCC2 [Example C-1]

Row | MIC [1] [µg/mL] | MIC [2] [µg/mL] | Structure (SMILES)
18 | 0.39 (≈ 1.12 µM) | 6.25 (≈ 17.9 µM) | O=C(NCc1ccc(Oc2ccccc2)s1)c1ccc2nccn2c1 [Example Q-7, Imidazo[1,2-a]pyridine-6-carboxylic acid (5-phenoxy-thiophen-2-ylmethyl)-amide]
19 | 3.13 (≈ 6.6 µM) |  | Nc1ccc(NCCNc2ccc(C(=O)NCc3ccc(Oc4ccccc4)s3)c(N)n2)cc1 [Example A-92, 2-Amino(2-(4-amino-phenylamine)-ethylamino)-N-(5-phenoxy-thiophen-2-ylmethyl)-nicotinamide]
20 | 0.78 (≈ 2.11 µM) | 0.78 (≈ 2.11 µM) | O=C(NCc1ccc(OCc2ccccc2)cc1)c1ccc2ncccc2n1 [Example D-2, [1.5]Naphthylidine-2-carboxylic acid 4-benzyloxybenzylamide]
21 | 1.56 (≈ 3.92 µM) | 6.25 (≈ 15.7 µM) | O=C(O)CCNc1ncccc1C(=O)NCc1ccc(Oc2ccccc2)s1 [Example A-131]
22 | 1.56 (≈ 4.04 µM) | 3.13 (≈ 8.1 µM) | O=C(NCc1ccc(OCc2ccccc2)cc1F)c1ccc2ncccc2c1 [Example E-53, Quinoline-6-carboxylic acid 4-benzyloxy-2-fluoro-benzalamide]
23 | 0.1 (≈ 0.278 µM) | 0.39 (≈ 1.08 µM) | Nc1nc(Cl)ccc1C(=O)NCc1ccc(Oc2ccccc2)s1 [Example A-101, 2-Amino-6-chloro-N-(5-phenoxy-thiophen-2-ylmethyl)-nicotinamide]
24 | 0.78 (≈ 2.28 µM) | 3.13 (≈ 9.14 µM) | O=C(NCc1cccc(C=C2CCCC2)c1)c1ccc2ncccc2c1 [Example E-51, 6-Quinolinecarboxylic acid 3-cyclopentylydenemethylbenzylamide]
25 | 0.78 (≈ 2.3 µM) |  | Cc1sc(CNC(=O)c2cccnc2N)cc1Oc1ccccc1 [Example A-170, 2-Amino-N-(5-methyl-4-phenoxy-thiophen-2-ylmethyl)-nicotinamide]
26 | 0.39 (≈ 1.12 µM) | 3.13 (≈ 9.01 µM) | Cc1ccc(C(=O)NCc2ccc(OCc3ccccc3)cc2)c(N)n1 [Example A-37, 2-Amino-N-(4-benzyloxy-benzyl)-6-methyl-nicotinamide]
27 | 0.2 (≈ 0.556 µM) | 1.56 (≈ 4.34 µM) | Nc1ncccc1C(=O)NCc1cc(Cl)c(Oc2ccccc2)s1 [Example A-171, 2-Amino-N-(4-chloro-5-phenoxy-thiophen-2-ylmethyl)-nicotinamide]
28 | 1.56 (≈ 4.6 µM) |  | CNc1ncccc1C(=O)NCc1ccc(Oc2ccccc2)s1 [Example A-136, 2-Methylamino-N-(5-phenoxy-thiophen-2-ylmethyl)-nicotinamide]
29 | 3.13 (≈ 8.81 µM) |  | O=C(NCc1cccc(Oc2ccccc2)c1)c1ccc2nnccc2c1 [Example F-1, Cinnoline-6-carboxylic acid 3-phenoxy-benzylamide]
30 |  | 6.25 (≈ 18.3 µM) | O=C(NCc1cccc(Oc2ccccc2)c1)c1ccc2[nH]ccc2c1 [Example V-1, 1H-Indole-5-carboxylic acid 3-phenoxybenzylamide]
31 | 3.13 (≈ 7.87 µM) |  | CO/N=C(\NCc1ccc(OCc2ccccc2)cc1)c1ccc2ncccc2c1 [Example E-44, N-(4-Benzyloxy-benzyl)-N′-methoxy-quinoline-6-carboxamidine]
32 | 0.39 (≈ 1.17 µM) |  | O=C(NCc1cccc(OCC2CC2)c1)c1ccc2ncccc2c1 [Example E-43, Quinoline-6-carboxylic acid 3-cyclopropylmethoxy-benzylamide]
33 | 1.56 (≈ 3.92 µM) |  | COCCCc1ccc(C(=O)NCc2ccc(Oc3ccccc3)s2)c(N)n1 [Example A-124, 2-Amino-6-(3-methoxy-propyl)-N-(5-phenoxy-thiophen-2-ylmethyl)-nicotinamide]
34 | 1.56 (≈ 4.41 µM) |  | O=C(NCc1ccc(Nc2ccccc2)cc1)c1ccc2ncccc2c1 [Example E-25, Quinoline-6-carboxylic acid 4-phenylamino-benzylamide]

Reference: patent US7932272B2, “Antifungal agent containing heterocyclic compound” (Eisai R&D Management Co., Ltd., priority 2003, dated 2011)
